The text below walks through data of patent US20110152326A1, “SUBSTITUTED ARYLOXOETHYL CYCLOPROPANECARBOXAMIDE COMPOUNDS AS VR1 RECEPTOR ANTAGONISTS” (priority 2005, published 2011).

In the assay the target is T1, human VR1 receptors (Homo sapiens, UniProt Q8NER1).
T1 construct: host or cells: cells that highly express human VR1 receptors
Put plainly: Human VR1 antagonist assay, Ca2+ imaging, capsaicin stimulation. The class given is cell-based. The conditions noted are these: human VR1 expressing cells; concentration required to reduce capsaicin-evoked Ca2+ influx by 50%; capsaicin 300 nM; read-out: hVR1 IC50. The source says: VR1 antagonistic activity can be determined by the Ca^2+ imaging assay using human VR1 highly expressing cells. The cells that highly express human VR1 receptors are obtainable from several different conventional methods. The one standard method is cloning from human Dorsal Root Ganglion (DRG) or kidney according to the methods such as described in the journal article; Nature, 389, pp 816-824, 1997. Alternatively VR1 receptors highly expressing human keratinocytes are also known and published in the journal article (Biochemical and Biophysical Research Communications, 291, pp 124-129, 2002). […] Further more, the method to up regulate human VR1 gene, which is usually a silent gene or don't produce detectable level of VR1 receptors, is also available to obtain propriety cells. Such genetic modification method was described in detail; Nat. Biotechnol., 19, pp 440-445, 2001.
The cells that express human VR1 receptors were maintained in culture flask at 37° C. in an environment containing 5% CO2 until use in the assay. The intracellular Ca^2+ imaging assay to determine VR1 antagonistic activities were done by following procedures.
The culture medium was removed from the flask and fura-2/AM fluorescent calcium indicator was added to the flask at a concentration of 5 μM in the medium. The flask was placed in CO2 incubator and incubated for 1 hour. Then the cells expressing the human VR1 receptors were detached from the flask follow by washing with phosphate buffer saline, PBS(−) and re-suspended in assay buffer. The 80 μl of aliquot of cell suspension (3.75×10^5 cells/ml) was added to the assay plate and the cells were spun down by centrifuge (950 rpm, 20° C., 3 minutes).
The capsaicin-induced changes in the intracellular calcium concentration were monitored using FDSS 6000 (Hamamatsu Photonics, Japan), a fluorometric imaging system. The cell suspension in Krebs-Ringer HEPES (KRH) buffer (115 mM NaCl, 5.4 mM KCl, 1 mM MgSO4, 1.8 mM CaCl2, 11 mM D-Glucose, 25 mM HEPES, 0.96 mM Na2HPO4, pH 7.3) were pre-incubated with varying concentrations of the test compounds or KRH buffer (buffer control) for 15 minutes at room temperature under the dark condition. Then capsaicin solution, which gives 300 nM in assay mixture, was automatically added to the assay plate by the FDSS 6000.
The monitoring of the changes in the fluorescence signals (λex=340 nm/380 nm, λem=510-520 nm) was initiated at 1 minute prior to the addition of capsaicin solution or acidic buffer and continued for 5 minute.

T1 sequence (Q8NER1 whole entry): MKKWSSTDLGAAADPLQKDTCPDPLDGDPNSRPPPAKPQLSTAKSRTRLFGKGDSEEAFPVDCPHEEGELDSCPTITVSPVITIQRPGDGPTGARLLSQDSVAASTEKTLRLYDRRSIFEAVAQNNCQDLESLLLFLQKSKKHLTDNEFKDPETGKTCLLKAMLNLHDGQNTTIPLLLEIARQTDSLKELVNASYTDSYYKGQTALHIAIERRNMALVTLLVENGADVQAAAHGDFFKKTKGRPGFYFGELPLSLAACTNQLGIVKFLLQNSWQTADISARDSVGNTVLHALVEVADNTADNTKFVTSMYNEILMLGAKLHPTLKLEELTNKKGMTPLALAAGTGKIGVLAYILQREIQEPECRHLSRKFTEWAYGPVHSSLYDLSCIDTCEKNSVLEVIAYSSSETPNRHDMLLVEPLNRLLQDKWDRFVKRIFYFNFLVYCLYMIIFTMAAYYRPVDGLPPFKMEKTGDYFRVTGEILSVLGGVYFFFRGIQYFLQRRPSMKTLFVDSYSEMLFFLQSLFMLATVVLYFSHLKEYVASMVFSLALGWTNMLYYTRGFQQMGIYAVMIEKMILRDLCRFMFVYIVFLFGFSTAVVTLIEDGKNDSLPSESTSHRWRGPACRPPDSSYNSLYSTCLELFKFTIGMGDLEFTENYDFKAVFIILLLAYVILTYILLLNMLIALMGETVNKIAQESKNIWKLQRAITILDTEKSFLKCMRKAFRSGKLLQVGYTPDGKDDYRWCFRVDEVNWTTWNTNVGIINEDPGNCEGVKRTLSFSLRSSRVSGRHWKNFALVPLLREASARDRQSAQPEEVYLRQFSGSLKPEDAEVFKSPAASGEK

The IC50 is the concentration needed to halve the response being measured. Turning to `Cc1ccc(O)cc1C(=O)CNC(=O)C1CC1c1ccc(C(C)(C)C)cc1` (stereo not shown) [Example 3, 2-(4-Tert-Butylphenyl)-N-[2-(5-Hydroxy-2-Methylphenyl)-2-Oxoethyl]Cyclopropanecarboxamide], the IC50 was 704 nM.
As to `Cc1cccnc1C(=O)CNC(=O)C1CC1c1ccc(C(C)(C)C)cc1` (stereo not shown) [Example 1, 2-(4-Tert-Butylphenyl)-N-[2-(3-Methylpyridin-2-yl)-2-Oxoethyl]Cyclopropanecarboxamide], the IC50 is 102 nM.
`Cc1cccnc1C(=O)CNC(=O)C1CC1c1ccc(C(C)(C)C)c(F)c1` (stereo not shown) [Example 4, 2-(4-Tert-Butyl-3-Fluorophenyl)-N-[2-(3-Methylpyridin-2-yl)-2-Oxoethyl]Cyclopropanecarboxamide]: the IC50 came to 99 nM.
As to `CCn1ccnc1C(=O)CNC(=O)C1CC1(C)c1ccc(C(C)(C)C(F)(F)F)cc1` (stereo not shown) [Example 12, N-[2-(1-Ethyl-1H-Imidazol-2-yl)-2-Oxoethyl]-2-Methyl-2-[4-(2,2,2-Trifluoro-1,1-Dimethylethyl)Phenyl]Cyclopropanecarboxamide], the IC50 came out at 340 nM.
As to `CCn1ccnc1C(=O)CNC(=O)C1CC1c1cc(F)c(C(C)(C)C(F)(F)F)c(F)c1` (stereo not shown) [Example 13, 2-[3,5-Difluoro-4-(2,2,2-Trifluoro-1,1-Dimethylethyl)Phenyl]-N-[2-(1-Ethyl-1H-Imidazol-2-yl)-2-Oxoethyl]Cyclopropanecarboxamide], the IC50 came out at 69 nM.
With `COc1ccc(C)c(C(=O)CNC(=O)C2CC2c2ccc(C(C)(C)C)cc2)c1` (stereo not shown) [Example 2, 2-(4-Tert-Butylphenyl)-N-[2-(5-Methoxy-2-Methylphenyl)-2-Oxoethyl]Cyclopropanecarboxamide] the figure was 1010 nM; with `Cc1cccnc1C(=O)CNC(=O)C1CC1c1ccc(C(C)(C)C(F)(F)F)cc1` (stereo not shown) [Example 5, N-[2-(3-Methylpyridin-2-yl)-2-Oxoethyl]-2-[4-(2,2,2-Trifluoro-1,1-Dimethylethyl)Phenyl]Cyclopropanecarboxamide], 111 nM.
On to `Cc1cccnc1C(=O)CNC(=O)C1CC1(C)c1ccc(C(C)(C)C)cc1` (stereo not shown) [Example 6, 2-(4-Tert-Butylphenyl)-2-Methyl-N-[2-(3-Methylpyridin-2-yl)-2-Oxoethyl]Cyclopropanecarboxamide], for which the IC50 came out at 134 nM.
For `CC(C)(C)c1ccc(C2CC2C(=O)NCC(=O)c2ncccc2C(F)(F)F)cc1F` (stereo not shown) [Example 8, 2-(4-Tert-Butyl-3-Fluorophenyl)-N-[2-(3-Trifluoromethylpyridin-2-yl)-2-Oxoethyl]Cyclopropanecarboxamide] the value was 102 nM; for `Cn1ccnc1C(=O)CNC(=O)C1CC1c1ccc(C(C)(C)C)c(F)c1` (stereo not shown) [Example 10, 2-(4-Tert-Butyl-3-Fluorophenyl)-N-[2-(1-Methyl-1H-Imidazol-2-yl)-2-Oxoethyl]Cyclopropanecarboxamide], 238 nM; for `Cc1cccnc1C(=O)CNC(=O)C1C(c2ccc(C(C)(C)C)cc2)C1(F)F` (stereo not shown) [Example 9, 3-(4-Tert-Butylphenyl)-2,2-Difluoro-N-[2-(3-Methylpyridin-2-yl)-2-Oxoethyl]Cyclopropanecarboxamide], 306 nM.
For `Cc1cccnc1C(=O)CNC(=O)C1CC1c1ccc(C(C)(C)C)c(Cl)c1` (stereo not shown) [Example 7, 2-(4-Tert-Butyl-3-Chlorophenyl)-N-[2-(3-Methylpyridin-2-yl)-2-Oxoethyl]Cyclopropanecarboxamide] the value was 92 nM; for `Cn1ccnc1C(=O)CNC(=O)C1CC1(C)c1ccc(C(C)(C)C(F)(F)F)cc1` (stereo not shown) [Example 11, 2-Methyl-N-[2-(1-Methyl-1H-Imidazol-2-yl)-2-Oxoethyl]-2-[4-(2,2,2-Trifluoro-1,1-Dimethylethyl)Phenyl]Cyclopropanecarboxamide], 451 nM.
